One series has as its system MAPK p38 phosphorylation. Briefly: MAPK p38 Activation Assay (western blot), Panc-1. Format: cell-based, human. Particulars: at 10 μM, Panc-1 pancreatic cancer cell line; starred symbols = activation. Here is the method:
Protocol for MAPK p38 Activation Assay
This assay is referred to as the “MAPK p38 Activation Assay” throughout this application.
Cell lines: Human tumor-derived pancreatic cancer cell line Panc-1 (expressing KRas G12D mutant) was purchased from American Type Culture Collection and grown in complete DMEM-High Glucose medium, supplemented with penicillin (100 U/mL), streptomycin (100 μg/mL), and 10% heat-inactivated FBS at 37° C. in a humidified incubator with 5% CO2.
Method 1: Cells were plated at 350000 cells/well density in a 12-well plate, allowed 3 hours to adhere to the plate, then starved in the appropriate medium in the presence of 0.5% FBS overnight. The small molecules to be tested were added to the cells in the final concentration of 10 μM in the presence of 0.3% DMSO for 6 hours incubation at 37° C. For IC50 value determination, serial dilutions of compounds were added to cells under the same conditions. Next, cells were stimulated with 1.5 ng/ml EGF for 15 minutes then cells were lysed with lysis buffer containing 1% Triton X-100, EDTA, and Halt™ Protease & Phosphatase Inhibitor Cocktail (Thermo Scientific). Protein concentration was assessed by BCA protein assay (Thermo Scientific). Phosphorylation level of MAPK p38 was determined by western blot.
Method 2: Cells were plated at 350000 cells/well density in a 12-well plate in 10% FBS. The next day small molecules to be tested were added to the cells in the final concentration of 10 μM in the presence of 0.3% DMSO for 6 hours incubation at 37° C. For IC50 value determination, serial dilutions of compounds were added to cells under the same conditions. Next, cells were lysed with lysis buffer containing 1% Triton X-100, EDTA, and Halt™ Protease & Phosphatase Inhibitor Cocktail (Thermo Scientific). Protein concentration was assessed by BCA protein assay (Thermo Scientific). Phosphorylation level of MAPK p38 was determined by western blot.
Western blot protocol: Equal amounts of protein (15-50 μg) were separated by SDS-PAGE and transferred to nitrocellulose membranes (Invitrogen by Thermo Fisher Scientific). The membrane was stained with Ponceau S Stain (Boston BioProducts) to verify uniform protein loading. Membranes were blocked with 10% milk and phosphorylation levels of MAPK p38 were assessed by incubating overnight at 4° C. with the following antibody: Phospho-p38 MAPK (Thr180/Tyr182), from Cell Signaling Technology. Then the membranes were incubated with HRP-conjugated secondary antibody (Jackson Immunoresearch, West Grove, PA). Bands were incubated in Amersham ECL Prime Western Blotting Detection Reagent (GE Healthcare) and visualized using the ChemiDoc MP imaging system (Bio-Rad).

Series [1] concerns NCI-H358 (expressing KRas G12C mutant) tumors. Put plainly: In vivo efficacy in NCI-H358 (G12C) model. Further details: species or system Athymic Nude-Foxn1 nu mice. The settings on record: daily dose 50 mg/kg. How it is done:
Biological Example 8: In Vivo Efficacy of Compound 6 in NCI-H358 (G12C) Model
Cell lines: Human tumor-derived non-small cell lung cancer cell lines NCI-H358 (expressing KRas G12C mutant was grown in RPMI-1640 Medium, ATCC 30-2001, supplemented with 10% fetal bovine serum (FBS) and Penicillin/Streptomycin 100U/ml (Lonza BioWhittaker, Morrisville, NC). Cells were trypsinized, washed in sterile PBS, counted, and resuspended in a 1:1 mix PBS/HC Matrigel (Corning, Glendale, AZ) at a concentration of 25×10^6/ml. Cells were kept on ice until injection.
The right flank of Athymic Nude-Foxn1 nu mice (The Jackson Laboratory, Harbor, ME) was injected subcutaneously with 5×10^6 cells in 200 μl of sterile PBS/Matrigel solution. Tumor mass was first measured 4 days after injection and mice were randomized on the basis of these measurements. Treatment was begun when tumors reached 150-200 mm^3, ^˜5-8 days after injection. Compound 6 was formulated in 20% captisol (50 mM citrate buffer, PH 5.0), and mice received either daily dose of vehicle or 50 mg/kg body weight of the formulated compound 6. Tumors were measured using digital calipers and volume (v) was calculated using the formula V=(W(2)×L)/2 where V is tumor volume, W is tumor width, and L is tumor length. Mice were housed in accordance with IACUC guidelines. The calculated Tumor Growth Inhibition (TGI) was 80%.

`CO[C@H]1CC[C@@H](Nc2nc(-c3ccccn3)nn3cc(-c4ccn(C(C)C)n4)c(C)c23)C1` (racemic) [Compound 9, rac 6-(1-Isopropyl-1H-pyrazol-3-yl)-N-((1R,3S)-3-methoxycyclopentyl)-5-methyl-2-(pyridin-2-yl)pyrrolo[2,1-f][1,2,4]triazin-4-amine]: in the series with MAPK p38 phosphorylation, the “% inh of MAPK p38 in Panc-1” value is recorded as “G* (G* = 75-99% activation)”.
Take `COc1cc(Nc2nc(-c3nccn3C)nn3cc(-c4ccn(C(C)C)n4)c(C)c23)ncn1` [Compound 6, 6-(1-Isopropyl-1H-pyrazol-3-yl)-N-(6-methoxypyrimidin-4-yl)-5-methyl-2-(1-methyl-1H-imidazol-2-yl)pyrrolo[2,1-f][1,2,4]triazin-4-amine]: the “% inh of MAPK p38 in Panc-1” value in the series with MAPK p38 phosphorylation was “E* (E* = 1-30% activation)”. Moreover, the “Tumor Growth Inhibition (TGI)” value in series [1] (NCI-H358 subcutaneous tumors in nude mice, 20% captisol formulation) amounted to 80%. For the same compound, the Weight loss result in series [1] (NCI-H358 tumor-bearing nude mice) is on record as “No weight loss was detected”.
In the case of `Cc1c(-c2ccn(C(C)C)n2)cn2nc(-c3ccccn3)nc(O)c12` [Compound 8, 6-(1-Isopropyl-1H-pyrazol-3-yl)-5-methyl-2-(pyridin-2-yl)pyrrolo[2,1-f][1,2,4]triazin-4-ol], the “% inh of MAPK p38 in Panc-1” value with MAPK p38 phosphorylation was “H* (H* ≥ 100% activation)”.
The same measure, in the same setting: the result for `Cc1c(-c2ccn(C(C)C)n2)cn2nc(-c3nccn3C)nc(Nc3nccn3C)c12` [Compound 93, 6-(1-Isopropyl-1H-pyrazol-3-yl)-5-methyl-N,2-bis(1-methyl-1H-imidazol-2-yl)pyrrolo[2,1-f][1,2,4]triazin-4-amine] reads “H* (H* ≥ 100% activation)”.

The values above are taken from patent US12459951B2, “Compounds that interact with RAS superfamily proteins for treatment of cancers, inflammatory diseases, rasopathies, and fibrotic disease” (SHY Therapeutics, LLC, priority 2022, dated 2025).
